Assay results from the METLIN SMRT retention time set (Domingo-Almenara et al. 2019).

Experiment: gradient 5% acetonitrile 3 min, to 50% in 2 min, to 85% in 15 min, held 3 min, 100 µL/min
Conditions: column: Zorbax Extend-C18 2.1 x 50 mm; eluents: water / acetonitrile, 0.1% formic acid
In short: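 The mobile phases were water and acetonitrile, each with 0.1% formic acid, pumped at 100 μL/min through a Zorbax Extend-C18 column (2.1 × 50 mm, 1.8 μm). Pure standards were injected as mixtures of ~100 molecules and detected by a quadrupole time-of-flight mass spectrometer in positive and negative ionization mode. Retention time came from computationally picked adduct peaks, each inspected by hand.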

| Compound | RP-LC retention time [s] |
| --- | --- |
| O=C(CCCN1C(=O)c2cccc3cccc(c23)C1=O)Nc1cccnc1 | 571 |
| Cc1cc2c(cc1S(=O)(=O)NC1CC1)N(C(=O)C1CCC1)CC2 | 844 |
| O=C(Cc1ccccc1)N1CCN(c2nc(CN3CCOCC3)cs2)CC1 | 614 |
| Cn1nc(C(=O)NCc2ccc3c(c2)OCO3)c2c1CCN(C(=O)COc1ccc(F)cc1)C2 | 765 |
| CCc1noc(NC(C)=O)c1-c1ccc(OC)c(S(=O)(=O)Nc2cc(C)ccc2OC)c1 | 854 |
| CCc1cccc(C)c1NC(=O)Cn1c(=O)n(-c2ccc(C)cc2)c(=O)c2c1cc(C)n2C | 909 |
| CCOC(=O)c1ccc(NC(=O)Cn2c(=O)c(CCC(=O)NC)nc3ccccc32)cc1 | 1260 |
| O=C(/C=C/c1ccccc1)NC(Cc1ccccc1)C(=O)N1CCN(c2ccccn2)CC1 (stereo not drawn) | 692 |
| CCc1cc(-c2csc(S(=O)(=O)NCC3CCN(Cc4ccc(Cl)cc4)CC3)c2)on1 | 739 |
| O=c1[nH]c(SCc2nnc(Nc3ccccc3)s2)nc2sc3c(c12)CCC3 | 801 |
| CCN1CCCC1CN(CCC(=O)N1CCNCC1)C(=O)c1ccc(C(F)(F)F)cc1 (stereo not drawn) | 569 |
| CCOC(=O)c1c(S(=O)(=O)N2CCC(C(=O)Nc3ccccn3)CC2)c(C)n(C)c1C | 678 |
| O=C(C1CCN(c2ncnc3c2oc2ccccc23)CC1)N1CCN(c2cccc(Cl)c2)CC1 | 930 |
| O=C(Nc1nnc(C2CC(=O)N(c3ccc(Cl)cc3)C2)o1)c1ccc(C(F)(F)F)cc1 (stereo not drawn) | 884 |
| Cc1nn(-c2ccc(C(=O)N3CCN(C(=O)c4ccco4)CC3)cc2)c2c1C(=O)CCC2 | 664 |
| CCc1nc2c(NC(=O)c3sccc3C)cccn2n1 | 831 |
| O=C(Nc1nnc(SCc2nnc(-c3ccccc3)o2)s1)c1cccc(Cl)c1 | 977 |
| Cc1cc(-c2nnc(-c3ccccc3)o2)c(C)n1CC(=O)NC1CCCC1 | 886 |
| CCCCN(Cc1ccco1)c1nc(-c2ccc(OC)cc2)nc2ccccc12 | 940 |
| O=c1c(S(=O)(=O)N2CCCC2)cccn1Cc1ccc(Cl)cc1 | 876 |
| COc1ccc(-c2cc(=O)n3c4ccccc4n(CC(=O)NC(C)C)c3n2)cc1 | 853 |
| CSc1ccc(NC(=O)N2CCc3nc[nH]c3C2)cc1 | 590 |
| CC(C)CC(=O)Nc1ccc(S(=O)(=O)N2CCCC2c2nc(-c3ccc(F)cc3)no2)cc1 (stereo not drawn) | 1080 |
| COc1ccc2c(c1)c(CC(=O)O)c(C)n2Cc1ccc(Cl)cc1 | 1060 |
| O=C(Cc1ccccc1Cl)N1CCN(Cc2noc3ccccc23)CC1 | 739 |
| O=C(c1ccccc1C(F)(F)F)N1CCN=C1SCc1cccnc1 | 590 |

| Compound | RP-LC retention time [s] |
| --- | --- |
| CCNC(=O)C1CC(=O)N(c2cccc(C)c2)C1 (stereo not drawn) | 658 |
| CCN1CCCC1CNc1onc(-c2ccc(Cl)cc2)c1C(=O)OC (stereo not drawn) | 699 |
| CCc1cc(-c2csc(S(=O)(=O)Nc3cc(C)cc(C)c3)c2)on1 | 1050 |
| O=C1[C@H]2CN(Cc3cccc(F)c3)C[C@H]2C(=O)N1Cc1ccc2c(c1)OCO2 | 800 |
| Cc1cn(C)c(CC(=O)N2CCCCCC2)c1C(=O)O | 664 |
| Clc1ccc(-c2nc(N3CCC(N4CCCCC4)CC3)c3ccccc3n2)cc1 | 616 |
| O=C(CC1CCCC1)NCCn1c(=O)n(Cc2ccc(F)cc2)c2cccnc21 | 814 |
| COc1ccc(-c2nc3cnc(Br)cn3c2Nc2ccc3c(c2)OCO3)cc1 | 926 |
| COc1ccc(N2CCN(C(=O)C3CCN(c4nc(NC(C)=O)ns4)CC3)CC2)cc1 | 618 |
| O=C(NCCc1csc(C2CCCN(C(=O)C3CCC3)C2)n1)C1CC1 (stereo not drawn) | 691 |
| CCOC(=O)C1=C(C)NC2=C(C(=O)C(C(=O)OC)C(C)C2)C1c1cccc(OC)c1 (stereo not drawn) | 846 |
| CC(=O)c1cccc(NC(=O)Cn2c(=O)n(-c3cccc(C)c3)c(=O)c3c2cc(C)n3C)c1 | 796 |
| Cc1ccc(N2C(=O)N(Cc3ccccc3)S(=O)(=O)c3cccnc32)cc1F | 1100 |
| CC1CCCN(CC2CCN(S(=O)(=O)c3cccc(Cl)c3)CC2)C1 (stereo not drawn) | 696 |
| Cc1cc(=O)n(CC(=O)Nc2cccc(F)c2)c(N2CCOCC2)n1 | 666 |
| CC1=C(c2ccc(C)cc2)S(=O)(=O)N=C1N1CCCN(C(=O)C2CCCC2)CC1 | 872 |
| O=C(C1CCN(c2cncnc2N2CCCCC2)CC1)N1CCN(C2CCCCC2)CC1 | 557 |
| Cc1nc(-c2cn(C(C)C)c3ncccc23)sc1C(=O)Nc1ccc(F)cc1 | 947 |
| COc1cccc(N2CCN(S(=O)(=O)c3cc(-c4csc(C)n4)ccc3C)CC2)c1 | 1190 |
| CC(Oc1ccccc1F)C(=O)NCCOc1ccc(-c2ccccn2)nn1 (stereo not drawn) | 612 |
| Cc1cc(C)c(S(=O)(=O)NC2CCCN(c3ccc(=O)n(C)n3)C2)c(C)c1 (stereo not drawn) | 844 |
| CC(=O)N1CCN(c2nccc(-n3nc(C)cc3C)n2)CC1 | 716 |
| COCCNC(=O)Cn1nc(C)c2sc(-c3ccccc3)nc2c1=O | 682 |
| Cc1ccc(-c2noc(Cn3ccn(-c4ccccc4)c(=O)c3=O)n2)cc1 | 844 |
| Fc1ccc(Br)cc1-c1nc2ccc(Cl)cn2c1Nc1ccc2c(c1)OCO2 | 945 |

Results, then the compound that gave them:

| RP-LC retention time [s] | Compound |
| --- | --- |
| 611 | Cc1ccc(CNC(=O)C2CCCN(C(=O)c3cc(-c4cccnc4)n[nH]3)C2)o1 (stereo not drawn) |
| 706 | Cn1c(=O)c2nc(SCCC(=O)Nc3c(F)cccc3F)n(C)c2n(C)c1=O |
| 733 | CCNc1nc(C)cc(N2CCN(S(=O)(=O)c3ccc(-c4csc(C)n4)s3)CC2)n1 |
| 858 | Cc1c(Cl)cccc1NC(=O)C1CCN(S(=O)(=O)c2ccc3c(c2)NC(=O)C(C)O3)CC1 (stereo not drawn) |
| 824 | CCc1ccc(C2=C(C)C(N3CCCN(C(=O)C(C)C)CC3)=NS2(=O)=O)cc1 |
| 1070 | COc1ccc(N2CC(c3noc(-c4ccc(OC(F)(F)F)cc4)n3)CC2=O)cc1 (stereo not drawn) |
| 718 | COc1ccc(C(=O)N2CC(n3cc(COCC4CC4)nn3)C2)c(OC)n1 |
| 958 | Cc1nn(C)c2nc(OCC(=O)N3CCCCCC3)cc(C(F)(F)F)c12 |
| 807 | CCNS(=O)(=O)c1cc(-c2c(C)noc2C)ccc1C |
| 1100 | CSc1ccc(-c2noc(Cn3c(=O)n(-c4ccc(Cl)cc4)c(=O)c4sccc43)n2)cc1 |
| 758 | COCc1noc(CC2CCOC3(CCN(C(=O)NC4CCCCC4)CC3)C2)n1 (stereo not drawn) |
| 1150 | CCOc1ccc(-c2nc(C3CC(=O)N(c4ccc(F)c(Cl)c4)C3)no2)cc1OCC (stereo not drawn) |
| 674 | Cc1ccc(NC(=O)Cn2cnc3nc(N4CCCC(C(=O)NC5CC5)C4)sc3c2=O)cc1 (stereo not drawn) |
| 1110 | CC(C)CNC(=O)c1cn(-c2ccc(-c3nc(C4CC4)no3)cn2)cn1 |
| 1080 | N#Cc1cccc(NS(=O)(=O)c2cccc(-c3nc(-c4ccccc4)no3)c2)c1 |
| 885 | CCCCNC(=O)C1Cc2cc(S(=O)(=O)N3CCCCC3)ccc2N1C(=O)CC (stereo not drawn) |
| 1170 | C=CCn1c(=O)c2ccccc2n(Cc2nc(-c3ccc(F)c(Br)c3)no2)c1=O |
| 857 | CCCC1(CO)CCCN1C(=O)c1nn(C)c2ccccc12 (stereo not drawn) |
| 1070 | Cc1ccc(CC(=O)N2CCc3cc(-c4csc(C)n4)ccc32)cc1 |

| RP-LC retention time [s] | Compound |
| --- | --- |
| 887 | COc1ccc(C2c3[nH]c4ccccc4c3CCN2C(=O)c2cccnc2)cc1 (stereo not drawn) |
| 823 | CC(C)CC(C(=O)Nc1cccc(O)c1)N1C(=O)c2ccccc2C1=O (stereo not drawn) |
| 854 | COc1cccc(S(=O)(=O)N2C[C@@H]3C[C@H]2C[C@@H]3NC(=O)c2cccs2)c1 |
| 1030 | COc1ccc(OC)c(S(=O)(=O)Cc2nc(-c3cccc(Br)c3)no2)c1 |
| 671 | CCNC(=O)CC1=C2CCCCC2N(C(C)C)C1=O (stereo not drawn) |
| 740 | Cc1c(C(=O)N2CCN(Cc3nc(C(C)(C)C)cs3)CC2)cccc1[N+](=O)[O-] |
| 776 | COc1ccc(-n2ccc(=O)c(-c3nc(-c4ccccc4OC)no3)n2)cc1 |
| 632 | O=C(Cn1cc(-c2ccc(F)cc2)oc1=O)NC1CCN(Cc2ccccc2)CC1 |
| 1040 | CCc1ccc(N2CC(c3noc(-c4ccc(OC)cc4OC)n3)CC2=O)cc1 (stereo not drawn) |
| 710 | Cc1ccc(NC(=O)Nc2ccc3nnc(C)n3c2)cc1F |
| 704 | O=C(Cc1c[nH]c2ccccc12)N1CC(n2cc(COCC3CC3)nn2)C1 |
| 770 | CCOC(=O)c1cc2c([nH]c1=O)CC(c1cccc(Cl)c1)CC2=O (stereo not drawn) |
| 1080 | Cc1ccc2oc(-c3noc(C(=O)NCc4ccc(C)o4)n3)c(C)c2c1 |
| 731 | CC(C)C(NC(=O)Cc1ccccc1Cl)C(=O)Nc1nc2ccccc2[nH]1 (stereo not drawn) |
| 732 | CC1(C)S[C@@H]2[C@H](NC(=O)Cc3ccccc3)C(=O)N2C1C(=O)O (stereo partly drawn) |
| 1110 | CCc1cc(-c2csc(S(=O)(=O)N3CCc4ccccc4C3)c2)on1 |
| 942 | Cc1cc(C(=O)NC(C)CCc2ccccc2)n(-c2ccccc2)n1 (stereo not drawn) |
| 792 | Nc1cc(C2CCN(S(=O)(=O)c3cccc(Cl)c3)CC2)no1 |
